Peptide text beside a SMILES is read from it. * marks the point of attachment. pNA = O=[N+]([O-])c1ccc(N*)cc1; Tos = Cc1ccc(S(=O)(=O)*)cc1; Cbz = O=C(OCc1ccccc1)*
Columns and labels:
leukocytes = assay: Protease liberation from leukocytes by anti-IgE or allergen, measured with Chromozym TH (Example 1 method); assay type: cell-based, human; conditions: for allergy towards the substance shown with the process (in words): general statement
Protocol: 60 ml. venous blood of a healthy donor were carefully mixed with 30 ml. of a dextran mixture (dextran with average M.W. of 75000 2%; D-glucose 2%, EDTA 20 mmol/liter; gelatine 0.07%) in a polyethylene beaker and transferred to a siliconised separating funnel. After leaving to stand for 60 to 90 minutes at room temperature, the supernatant containing the leukocytes (about 50 ml.) was separated off and mixed with 50 ml. tris buffer mixture of pH 7.6 (tris 22 mmol/liter; sodium chloride 0.12 mol/liter; potassium chloride 5 mmol/liter; gelatine 0.05%; EDTA 1 mmol/liter; D-glucose 0.1%) and centrifuged for 15 minutes at 800 g. After decanting, the cells were washed twice in that, in each case, they were again suspended in 50 ml. of the same buffer mixture (pH 7.6) and, in each case, centrifuged for 15 minutes at 800 g. The cells were then suspended in 10 ml. of the same buffer mixture.
(§1) Two 0.9 ml. amounts of cell suspension were each transferred to a polyethylene test tube, mixed with 0.4 ml. tris buffer mixture (pH 7.6) and brought to 37° C. in a water-bath. To one sample, there was added 0.1 ml. of anti-IgE solution (Behring-Werke, No. OTNP 04/05, diluted 1:500 with tris buffer mixture; pH 7.6) and to the other sample (the control) there was pipetted 0.1 ml. of tris buffer mixture (pH 7.6) and to both samples there was added 0.1 ml. calcium chloride solution (4 mmol/liter in isotonic sodium chloride solution; pH 7.6). The two samples were kept for 60 minutes at 37° C., then each was mixed with 0.5 ml. ice-cold EDTA solution (0.1 mol/liter in isotonic sodium chloride solution; pH 7.6) and centrifuged for 10 minutes at 4° C., and at 30000 g, the supernatant being pipetted off immediately after stopping the centrifuge.
To 0.5 ml of the supernatant was added 0.5 ml. of 1.5 mmol/l. […] The extinction difference between the two samples was determined after 1, 2 and 3 hours at 405 nm.

[1] = tested on: protease liberated from leukocytes after anti-IgE stimulation; assay: Splitting of chromogenic substrates by the protease liberated from leukocytes; assay type: biochemical, human
Protocol: as §1
To 0.5 ml of the supernatant was added 0.5 ml. of 1.5 mmol/l. Chromozym TH solution (1 bottle BM 199664 dissolved in 5 ml. water). The extinction difference between the two samples was determined after 1, 2 and 3 hours at 405 nm.
From two 0.9 ml. amounts of leukocyte suspension obtained according to Example 1.1 from the blood of a healthy donor, there was obtained protease according to Example 1.2, after anti-IgE stimulation, as centrifuge supernatant. The testing of the protease took place as in Example 1.3 but in the case of one sample, instead of Chromozym TH, there was added an equimolar amount of CBO-Gly-Pro-Arg-pNA. Within the first 3 hours equal ΔE/h values (ΔE/h=0.067) were measured.
The activity of two samples treated in parallel according to Example 1 was determined with Chromozym TH and with an equimolar amount of Chromozym PL. With Chromozym PL, there was found ΔE/h=0.052 and with Chromozym TH ΔE/h=0.048.
The protease activity of two samples treated in parallel according to Example 1 was determined with Chromozym TH and with an equimolar amount of S 2238. With S 2238 there was determined ΔE/h=0.037 and with Chromozym TH ΔE/h=0.048.

[2] = tested on: new protease from leukocytes; assay: Specific inhibitability of the new protease from leukocytes; assay type: biochemical, human; conditions: new leukocyte protease
[3] = tested on: kallikrein-like protease from leukocytes; conditions: cited from earlier work
[4] = Example 4, samples treated according to Example 1, equimolar substrate
[5] = Example 3, healthy donor, after anti-IgE stimulation, first 3 hours, equimolar substrate
[6] = Example 5, samples treated according to Example 1, equimolar substrate

CC1(C)S[C@@H]2[C@H](NC(=O)[C@H](N)c3ccccc3)C(=O)N2[C@H]1C(=O)O [ampicillin]
additional extinction change ΔE/h versus unstimulated comparative sample (leukocytes; donor allergic to ampicillin): 0.558 h⁻¹
measurement value ΔE/h of the stimulated sample (leukocytes; donor allergic to ampicillin, 0.9 ml. leukocyte suspension): 0.893 h⁻¹
allergy towards the substance shown with the process (in words) (leukocytes): demonstrated

Cc1ccc(S(=O)(=O)NCC(=O)N2CCC[C@H]2C(=O)N[C@@H](CCCCN)C(=O)Nc2ccc([N+](=O)[O-])cc2)cc1 [Chromozym PL, Tos-Gly-Pro-Lys-pNA] (Tos-Gly-Pro-Lys-pNA)
ΔE/h with the substrate [1, 4]: 0.052 h⁻¹

CC(=O)O.Cc1ccc(S(=O)(=O)NCC(=O)N2CCC[C@H]2C(=O)N[C@@H](CCCNC(=N)N)C(=O)Nc2ccc([N+](=O)[O-])cc2)cc1 [Chromozym TH, tosyl-glycyl-prolyl-arginine-p-nitroanilide acetate] (Tos-Gly-Pro-Arg-pNA)
ΔE/h with the substrate [1, 5]: 0.067 h⁻¹
ΔE/h with the substrate [1, 4]: 0.048 h⁻¹
ΔE/h with the substrate [1, 6]: 0.048 h⁻¹

NC(N)=NCCC[C@H](NC(=O)[C@@H]1CCCCN1C(=O)[C@H](N)Cc1ccccc1)C(=O)Nc1ccc([N+](=O)[O-])cc1 [S 2238, Phe-Pip-Arg-pNA]
ΔE/h with the substrate [1, 6]: 0.037 h⁻¹

aprotinin [reference compound]
specific inhibitability by aprotonin I50 [2]: 1 mg/mL
specific inhibitability by aprotinin I50 ([3]; known kallikrein-like protease): about 50 μg./ml.

nickel
allergy towards the substance shown with the process (in words) (leukocytes): demonstrated

N=C(N)NCCC[C@H](NC(=O)[C@@H]1CCCN1C(=O)CNC(=O)OCc1ccccc1)C(=O)Nc1ccc([N+](=O)[O-])cc1 [CBO-Gly-Pro-Arg-pNA, reference compound] (Cbz-Gly-Pro-Arg-pNA)
ΔE/h with the substrate [1, 5]: 0.067 h⁻¹

B1: soya bean trypsin inhibitor (protein, UniProt P01070 25-205, looked up)
Trypsin inhibitor A: DFVLDNEGNPLENGGTYYILSDITAFGGIRAAPTGNERCPLTVVQSRNELDKGIGTIISSPYRIRFIAEGHPLSLKFDSFAVIMLCVGIPTEWSVVEDLPEGPAVKIGENKDAMDGWFRLERVSDDEFNNYKLVFCPQQAEDDKCGDIGISIDHDDGTRRLVVSKNKPLVVQFQKLDKESL
inhibition by STI ([3]; 0.1 mole/l. STI): 11%

— patent US4592997A, “Process for the detection of the presence of an allergy and for the specific detection of the allergen responsible for the allergy” (Boehringer Mannheim GmbH, priority 1982, dated 1986)
